Source: patent US20030091533A1, “Regulation of mononuclear phagocyte stimulation” (priority 2001, published 2003)

Tested on: LPS-stimulated AM
Test: TGF-β1 release by ELISA, AM
Type: cell-based, human
Conditions: acid-treated supernatants; preincubated 24 hour 20 ng/ml, LPS 20 h; medium-preincubated 109±23
Protocol: FIG. 6 depicts the effect of IL-9, IL-4 and IFN-γ on the release of IL-10 (A) and TGF-β1 (B) by LPS-stimulated PBM and AM cultured under the same conditions as described in FIG. 5 Example I. D. TGF-β1 was determined by ELISA in crude supernatants (untreated supernatants) and in ethanol-acid (acid-treated) supernatants, using a kit from Biosource for determining TGF-β1 release from its latent complexes. An ELISA kit from CLB (Amsterdam, The Netherlands) was used to determine IL-10 following the manufacturer's protocol. […] Data are means±SEM (n=3). *P<0.05 compared with unstimulated cells; **P<0.05 compared with cells preincubated with medium.
Cells (1×10^6 PBM or 0.5×10^6 AM/well) were distributed in 24-well plates (Falcon), preincubated in cRPMI for 24 hours at 37° C., 5% CO2 with cytokines (IL-9, IL-4 (20 ng/ml) and IFN-γ (200 U/ml)) and stimulated for 20 hours with 1 μg/ml LPS without removing cytokines. […] Release of TNF-α was quantified by a cytotoxicity bioassay using WEHI 164 cells clone 13, as previously described (Espevik and Nissen-Meyer, J. Immunol. Methods, 95:99-105 (1986) incorporated herein by reference), using rhTNF-α from Boehringer as a standard. IL-8, IL-10 and TGF-β1 concentrations were determined by ELISA. A kit from CLB (Amsterdam, The Netherlands) was used for IL-10 quantitation, following the manufacturer's protocol. […]

Substance: IL-9: Human IL-9 purified from SF9 insect cell cultures infected with recombinant baculovirus
- production of TGF-β1 by LPS-stimulated AM: 366+21 pg/ml
